From patent US20190389843A1, “PYRROLE mTORC INHIBITORS AND USES THEREOF” (Navitor Pharmaceuticals, Inc., priority 2016, published 2019)

Experiments:
[1] = system: pAKT in MCF7 (measure of mTORC2 activity); experiment: AlphaLISA Ultra pAKT assay; format: cell-based; conditions: Homo sapiens, MCF7, 2 h, MCF-7 cells, 2 hours compound incubation
Experimental: (§1) Assay Protocol: • 1. […] 16,000˜20,000 cells will be seeded in 36 μL medium per well. • 2. Change the culture medium with fresh medium and incubate for another 2 hours. • 3. Add 12 μL (4×) compounds into the cell plate by HAMILTON. Final DMSO concentration is 0.5%. Incubate for 2 hours. • 4. Aspirate 38 μL by HAMILTON, 10 μL rest per well. • 5. Add 10 μL 2× lysis buffer using HAMILTON; total volume in wells is 20 μL. Allow cells to shake for 30 min. Cover plate by plastic foil and store plate at −80° C. up to analysis. • 6. […] Add 5 ul acceptor beads into assay plate and incubation for 2 hours • 8. Add 5 ul donor beads and incubation for 2 hours • 9. Count the plate by EnSpire Multimode Plate Reader

[2] = system: pS6K1 in MCF7 (measure of mTORC1 activity); experiment: AlphaLISA Ultra pS6K1 assay; format: cell-based; conditions: Homo sapiens, MCF7, 2 h, MCF-7 cells, 2 hours compound incubation
Experimental: as §1, with “12,000˜16,000” for “16,000˜20,000”, “(4λ)” for “(4×)”

| Compound | IC50 [1] | IC50 [2] |
| --- | --- | --- |
| Cc1c(CN2CCN(c3ccccc3Cl)CC2)cc(C(=O)N2CCN(c3cnccn3)C[C@@H]2C)n1C [Example I-51, (S)-(4-((4-(2-chlorophenyl)piperazin-1-yl)methyl)-1,5-dimethyl-1H-pyrrol-2-yl)(2-methyl-4-(pyrazin-2-yl)piperazin-1-yl)methanone] | > 10 µM | 0.01 to 1 µM |
| Cc1c(CN2C3CCC2CN(c2ccccc2C#N)C3)cc(C(=O)N2CCN(c3ccccn3)CC2)n1C [Example I-52, 2-(8-((1,2-dimethyl-5-(4-(pyridin-2-yl)piperazine-1-carbonyl)-1H-pyrrol-3-yl)methyl)-3,8-diazabicyclo[3.2.1]octan-3-yl)benzonitrile] | > 10 µM | 0.01 to 1 µM |
| Cc1c(CN2CCN(c3ccccc3C#N)CC2)cc(C(=O)N2CCN(c3ccc(C#N)cc3)CC2)n1C [Example I-53] | > 10 µM | 1 to 3 µM |
| Cc1c(CN2CCN(c3ccccc3C#N)CC2)cc(C(=O)N2CCN(c3ccccc3)CC2)n1C [Example I-54] | > 1 µM | 0.01 to 1 µM |
| Cc1c(CN2CCN(c3ccccc3C#N)CC2)cc(C(=O)N2CCN(c3ccc(F)cc3)CC2)n1C [Example I-55] | > 1 µM | 0.01 to 1 µM |
| Cc1c(CN2CCN(c3ccccc3C#N)CC2)cc(C(=O)N2CCN(c3ncccc3C#N)CC2)n1C [Example I-56] | > 3 µM | 0.01 to 1 µM |
| C[C@H]1CN(c2cccc(C#N)c2)CCN1C(=O)c1cc(CN2CCN(c3ccccc3C#N)CC2)cn1C [Example I-57] | > 3 µM | 0.01 to 1 µM |
| C[C@H]1CN(c2ccccc2C#N)CCN1C(=O)c1cc(CN2CCN(c3ccccc3C#N)CC2)cn1C [Example I-58] | > 10 µM | 0.01 to 1 µM |
| Cc1c(CN2CCN(c3ccccc3Cl)CC2)cc(C(=O)N2CCN(c3cc(C#N)ccn3)CC2)n1C [Example I-59] | > 3 µM | 1 to 3 µM |
| Cc1c(CN2CCN(c3ccccc3C#N)CC2)cc(C(=O)N2CCN(c3ccccn3)CC2)n1C [Example I-60] | > 3 µM | 0.01 to 1 µM |
| COc1ccnc(N2CCN(C(=O)c3cc(CN4CCN(c5ccccc5C#N)CC4)c(C)n3C)CC2)c1 [Example I-61] | > 3 µM | 0.01 to 1 µM |
| Cc1ccnc(N2CCN(C(=O)c3cc(CN4CCN(c5ccccc5C#N)CC4)c(C)n3C)CC2)c1 [Example I-62] | > 3 µM | 0.01 to 1 µM |
| Cc1cccc(N2CCN(C(=O)c3cc(CN4CCN(c5ccccc5C#N)CC4)c(C)n3C)CC2)n1 [Example I-64] | > 3 µM | 0.01 to 1 µM |
| Cc1c(CN2CCN(c3ccccc3C#N)CC2)cc(C(=O)N2CCN(c3cc(C#N)ccn3)CC2)n1C [Example I-65] | > 3 µM | 0.01 to 1 µM |
| Cc1c(CN2CCN(c3ccccc3C#N)CC2)cc(C(=O)N2CCN(c3cccc(C#N)c3)C[C@@H]2C)n1C [Example I-66] | > 3 µM | 0.01 to 1 µM |
| Cc1c(CN2CCN(c3ccccc3C#N)CC2)cc(C(=O)N2CCN(c3ccccc3C#N)C[C@@H]2C)n1C [Example I-67] | > 10 µM | 0.01 to 1 µM |
| Cc1c(CN2CCN(c3ccccc3C#N)CC2)cc(C(=O)N2CCN(c3cc(Cl)ccn3)CC2)n1C [Example I-68] | > 1 µM | 0.01 to 1 µM |
| COc1cccc(N2CCN(C(=O)c3cc(CN4CCN(c5ccccc5C#N)CC4)c(C)n3C)CC2)n1 [Example I-69] | > 3 µM | 0.01 to 1 µM |
| Cc1ccnc(N2CCN(C(=O)c3cc(CN4CCN(c5ccccc5Cl)CC4)c(C)n3C)CC2)c1 [Example I-70] | > 3 µM | 0.01 to 1 µM |
| Cc1c(CN2CCN(c3ccccc3Cl)CC2)cc(C(=O)N2CCN(c3cc(Cl)ccn3)CC2)n1C [Example I-71] | > 3 µM | 0.01 to 1 µM |
| Cn1cc(CN2CCN(c3ccccc3C#N)CC2)cc1C(=O)N1CCN(c2ccc(F)cc2)CC1 [Example I-73] | > 10 µM | 3 to 10 µM |
| Cc1c(CN2CCN(c3ccccc3Cl)CC2)cc(C(=O)N2CCN(c3ncccn3)C[C@@H]2C)n1C [Example I-74, (S)-(4-((4-(2-chlorophenyl)piperazin-1-yl)methyl)-1,5-dimethyl-1H-pyrrol-2-yl)(2-methyl-4-(pyrimidin-2-yl)piperazin-1-yl)methanone] | > 10 µM | 1 to 3 µM |

Other lines, results leading:

| IC50 [1] | IC50 [2] | Compound |
| --- | --- | --- |
| > 5 µM | 1 to 3 µM | Cc1c(CN2CCN(c3ccccc3Cl)CC2)cc(C(=O)N2CCN(c3cccc(F)c3)C[C@@H]2C)n1C [Example I-75, (S)-(4-((4-(2-chlorophenyl)piperazin-1-yl)methyl)-1,5-dimethyl-1H-pyrrol-2-yl)(4-(3-fluorophenyl)-2-methylpiperazin-1-yl)methanone 2,2,2-trifluoroacetate] |
| > 5 µM | 1 to 3 µM | Cc1c(CN2CCN(c3ccccc3Cl)CC2)cc(C(=O)N2CCN(c3ncc(F)cn3)C[C@@H]2C)n1C [Example I-77, (S)-(4-((4-(2-chlorophenyl)piperazin-1-yl)methyl)-1,5-dimethyl-1H-pyrrol-2-yl)(4-(5-fluoropyrimidin-2-yl)-2-methylpiperazin-1-yl)methanone] |
| > 3 µM | 0.01 to 1 µM | Cc1c(CN2CCN(c3ncccc3Cl)CC2)cc(C(=O)N2CCN(c3ccc(F)c(F)c3)C[C@@H]2C)n1C [Example I-78, (S)-(4-((4-(3-chloropyridin-2-yl)piperazin-1-yl)methyl)-1,5-dimethyl-1H-pyrrol-2-yl)(4-(3,4-difluorophenyl)-2-methylpiperazin-1-yl)methanone] |
| > 3 µM | 0.01 to 1 µM | Cc1c(CN2CCN(c3ncccc3Cl)CC2)cc(C(=O)N2CCN(c3cccc(C#N)c3)CC2)n1C [Example I-79, 3-(4-(4-((4-(3-Chloropyridin-2-yl)piperazin-1-yl)methyl)-1,5-dimethyl-1H-pyrrole-2-carbonyl)piperazin-1-yl)benzonitrile] |
| > 3 µM | 0.01 to 1 µM | Cc1c(CN2CCN(c3ncccc3Cl)CC2)cc(C(=O)N2CCN(c3ccc(F)cc3)CC2)n1C [Example I-80, (4-((4-(3-Chloropyridin-2-yl)piperazin-1-yl)methyl)-1,5-dimethyl-1H-pyrrol-2-yl)(4-(4-fluorophenyl)piperazin-1-yl)methanone] |
| > 10 µM | 1 to 3 µM | Cc1c(CN2CCN(c3ccccc3Cl)CC2)cc(C(=O)N2CCn3nc(-c4ccccc4)cc3C2)n1C [Example I-81, (4-((4-(2-Chlorophenyl)piperazin-1-yl)methyl)-1,5-dimethyl-1H-pyrrol-2-yl)(2-phenyl-6,7-dihydropyrazolo[1,5-a]pyrazin-5(4H)-yl)methanone 2,2,2-trifluoroacetate] |
| > 10 µM | 1 to 3 µM | Cc1c(CN2CCN(c3ccccc3Cl)CC2)cc(C(=O)N2CCN(c3ccc(F)c(Cl)c3)CC2)n1C [Example I-82, (4-(3-chloro-4-fluorophenyl)piperazin-1-yl)(4-((4-(2-chlorophenyl)piperazin-1-yl)methyl)-1,5-dimethyl-1H-pyrrol-2-yl)methanone] |
| > 10 µM | 1 to 3 µM | Cc1c(CN2CCN(c3ccccc3N=[N+]=[N-])CC2)cc(C(=O)N2CCN(c3ccccc3)C[C@@H]2C)n1C [Example I-83, (S)-(4-((4-(2-azidophenyl)piperazin-1-yl)methyl)-1,5-dimethyl-1H-pyrrol-2-yl)(2-methyl-4-phenylpiperazin-1-yl)methanone] |
| > 3 µM | 0.01 to 1 µM | Cc1c(CN2CCN(c3ncccc3Cl)CC2)cc(C(=O)N2CCN(c3ccc(F)c(F)c3)CC2)n1C [Example I-84, (4-((4-(3-chloropyridin-2-yl)piperazin-1-yl)methyl)-1,5-dimethyl-1H-pyrrol-2-yl)(4-(3,4-difluorophenyl)piperazin-1-yl)methanone] |
| > 3 µM | 0.01 to 1 µM | Cc1c(CN2CCN(c3ccccc3Cl)CC2)cc(C(=O)N2CCN(c3cc(F)ccc3C#N)CC2)n1C [Example I-85, 2-(4-(4-((4-(2-Chlorophenyl)piperazin-1-yl)methyl)-1,5-dimethyl-1H-pyrrole-2-carbonyl)piperazin-1-yl)-4-fluorobenzonitrile] |
| > 10 µM | 0.01 to 1 µM | Cc1c(CN2CCN(c3ccccc3Cl)CC2)cc(C(=O)N2CCN(c3cc(F)ccc3C#N)C[C@@H]2C)n1C [Example I-86, (S)-2-(4-(4-((4-(2-chlorophenyl)piperazin-1-yl)methyl)-1,5-dimethyl-1H-pyrrole-2-carbonyl)-3-methylpiperazin-1-yl)-4-fluorobenzonitrile] |
| > 5 µM | 0.01 to 1 µM | C[C@H]1CN(c2cc(F)ccc2C#N)CCN1C(=O)c1cc(CN2CCN(c3ccccc3Cl)CC2)cn1C [Example I-87, (S)-2-(4-(4-((4-(2-chlorophenyl)piperazin-1-yl)methyl)-1-methyl-1H-pyrrole-2-carbonyl)-3-methylpiperazin-1-yl)-4-fluorobenzonitrile] |
